Laboratory results: patent US20080255244A1, “CaM Kinase II Inhibitor Improves Retinoic Acid Therapy and Inhibits the Proliferation of Myeloid Leukemia Cells” (Fred Hutchinson Cancer Research Center, priority 2007, published 2008)
Entries after “also recorded” stand apart in the source; their conditions may differ.

Experiments:
[1] = test system: autophosphorylated CaMKIIγ in HL60 cells; assay: Western blot of CaMKIIγ autophosphorylation in HL60 cells; format: cell-based, human; conditions: phospho-T286/7 antibody, ATRA 1 μM, TPA 0.1 μM
Method: (§1) FIG. 7. KN-62 regulates the differentiation of myeloid leukemia cell lines. (A) Wright Giemsa-stained HL-60 cells either (a) uninduced or treated for five days with (b) KN62 or (c) ATRA. (d) CD11b expression in HL-60 cells after five days exposure to KN62 (5 μM) or ATRA (1 μM). (B) Wright-Giemsa stained NB4 cells treated for five days with KN-62 (5 μM) and ATRA as indicated. […] (C) Cd11b expression of NB4 cells treated for five days with the indicated concentrations of RA and/or KN-62. (D) Western blots with the indicated antibodies were performed on HL60 cell lysates following incubation with KN62 for the indicated period of time. (E) Western blots of NB4 cell lysates following a five day incubation with the indicated compounds.
(§2) FIG. 9. Terminal differentiation/apoptosis of myeloid leukemia cells is associated with decreased CaMKIIγ activation. (A) Lysates from the HL60, NB4 and U937 myeloid cell lines treated with ATRA (1 μM) for the indicated period of time were subjected to Western blots. (B) Lysates from the indicated myeloid cell lines treated for five days with the indicated concentration of ATRA were subjected to Western blots. (C) Lysates from HL60 cells treated with TPA (0.1 μM) for the indicated time were subjected to Western blots. (D) Lysates from NB4 cells treated with arsenic trioxide (1 uM) for the indicated time were subjected to Western blots.
(§3) Protein extracts, Western blotting and co-immunoprecipitations. Westerns and co-immunoprecipitations were performed as previously detailed (Si, J., and Collins, S. J., Blood 100:4401-4409 (2002)).
(§4) Antibodies and Western blots. Protein extracts, immunoprecipitations and Western blots were performed as previously detailed (Si J, Collins S J. IL-3-induced enhancement of retinoic acid receptor activity is mediated through Stat5, which physically associates with retinoic acid receptors in an IL-3-dependent manner. Blood 100: 4401-9 (2002)). Antibodies against CaMKI, CaMKIIγ, CaMKIV, c-myc, Stat3, Stat5, calmodulin, as well as the phosphospecific CaMKII (T286, 287) and phosphospecific CaMKI (T177) antibodies were from Santa Cruz Biotechnology. Antibodies against phospho-Stat1 (Ser727), phospho-Stat3 (Ser727 and Tyr 705), phospho-Stat5 (Tyr 694), phospho-p44/42 MAP kinase (Thr202/Tyr 204), p44/42 MAP kinase, phospho-p38 MAP kinase (Thr 180/Tyr 182), phospho-GSK3β (Ser9) were from Cell Signaling Technology. Antibodies against Stat1, GSK3β, β-catenin, PP2Ac, and cyclin D1 were from BD Biosciences.

[2] = test system: RAR transcriptional activity in HL60 cells; assay: RARE-driven luciferase reporter in HL60 cells; format: cell-based, human; conditions: six hours after treatment with ionomycin and ATRA
Method: FIG. 1. CaM kinase isoform expression in hematopoietic cells. (A) The activity of an ATRA-responsive luciferase reporter (βRARE-tk-Luc, 25 μg) was assessed in electroporated HL60 cells six hours after treatment with the indicated concentrations of ionomycin and ATRA. (B) The activity of the luciferase reporter (βRARE-tk-Luc, 25 μg) was assessed in HL60 six hours after treatment with KN62 (5 uM), KN93 (5 uM) and ATRA (1 uM). (C) Western blots were performed utilizing the indicated antibodies. F9 (column 6) is a mouse embryonal carcinoma cell line. BaF3 (column 7) is a cultured pre-B cell line. BM cells (column 8) are kit-ligand dependent normal murine hematopoietic precursors. PT67 murine fibroblasts individually transduced with either rat CaMKIIα, human CaMKIα or human CaMKIV (column 9) together with brain lysates (column 1) serve as positive controls for the respective antibodies. (D) CaMK assays were performed on HL-60 cell lysates immunoprecipitated with the indicated antibodies.
Transient transfections and luciferase assays. Murine PT67 fibroblasts were transfected utilizing calcium phosphate precipitation. All hematopoietic cell lines were transiently transfected by electroporation as previously detailed (Johnson, B. et al., Molecular and Cellular Biology 19:3372-3382 (1999)). In the transient transfections the LXSN vector (M28248) served as the expression vector for the wild type and site-directed mutagenized CaMKII and RARα coding region cDNAs. Human cDNA homologous to the coding region of rat CaMKIINα, a CaMKII inhibitory protein, was obtained by RT-PCR from HL60 RNA and cloned into the LXSN vector. The RA-responsive luciferase reporter harbors the RARE from the RARβ2 promoter as previously detailed (Si, J., and Collins, S. J., Blood 100:4401-4409 (2002)). The PON838 plasmid, a β-galactosidase reporter driven by the β-actin promoter, was used as an internal control to determine transfection efficiency for calculating relative luciferase activity.

K562 cells = assay: K562 proliferation in liquid suspension culture (cell counts); format: cell-based, human; conditions: seeded at 5×10^4 cells/ml; cell counts
Method: (A) K562 cells were seeded in liquid suspension culture at 5×10^4 cells/ml in the presence or absence of the indicated concentration of compounds, and cell counts were obtained at the indicated time.
Cell lines. All leukemia cell lines are cultured at 37° in RPMI supplemented with 5% heat-inactivated fetal calf serum.

[3] = test system: Stat3 transcriptional activity in K562 cells; assay: Stat3 response element luciferase reporter in K562 cells; format: cell-based, human; conditions: 48 hours of culture
Method: FIG. 13. Stat3 is directly phosphorylated and activated by CaMKIIγ at Ser727. (A, i). Cell lysates from the indicated human leukemia cell lines were subjected to Western blots utilizing the indicated Stat3 antibodies. ii). Cell lysates from the same primary AML samples depicted in FIG. 1B were subjected to Western blots utilizing the indicated Stat3 antibodies. B). The IL-3 dependent TonB210.1 cells were deprived of IL-3 for 24 hours. The cells were then treated with the indicated compounds immediately prior to the addition of doxycycline. After an additional 24 hours cell lysates were harvested and subjected to Western blots with the indicated Stat3 antibodies. C). K562 cells were electroporated with a luciferase reporter driven by a Stat3 response element. The indicated concentrations of KN93 and the Stat 3 inhibitor, cucurbitacin I, were added and relative luciferase activity determined on cell lysates following 48 hours of culture. D, i) K562 cell lysates were immunoprecipitated with control IgG or a Stat3 antibody. […]
Transient transfections and luciferase assays. […] Stat3 transcriptional activity was determined in K562 cells transfected with the pSIE-tk-LUC luciferase reporter which harbors a Stat3 binding site ([…]). […]

[4] = test system: autophosphorylated CaMKIIγ in TonB210.1 cells; assay: bcr-abl induced CaMKII autophosphorylation in TonB210.1 cells (Western blot); format: cell-based; conditions: TonB210.1 deprived of IL-3 for 24 hours, compound added with doxycycline
[5] = test system: autophosphorylated CaMKIIγ in NB4 cells; assay: Western blot of CaMKIIγ autophosphorylation in NB4 cells; format: cell-based, human; conditions: single agent, ATRA 1 μM, arsenic trioxide 1 uM
Method: as §1, §2, §3, §4

[6] = test system: autophosphorylated CaMKIIγ in K562 cells; assay: Western blot of CaMKIIγ autophosphorylation in K562 cells; format: cell-based, human; conditions: for activated, autophosphorylated CaMKIIγ level: gleevec 5 uM, ATRA five days
Method: as §2
FIG. 10. Inhibiting bcr-abl activity/expression inhibits CaMKIIγ activation. (A) Lysates from K562 cells undergoing growth arrest following treatment with gleevec (5 uM) for the indicated times were subjected to Western blots. (B) Lysates from TonB210.1 cells depleted of doxycycline for the indicated period of time were subjected to Western blots. (C) IL-3 dependent TonB210.1 cells were deprived of IL-3 for 24 hours (lane 1). The cells were then treated with the indicated compounds simultaneously with the addition of doxycycline (lanes 2-8). After 24 hours cell lysates were harvested and subjected to Western blots with the indicated CaMKII antibodies. (D) K562 cells were cultured for 48 hours with the indicated chemical inhibitors of specific signal transduction pathways. Cell lysates were harvested and subjected to Western blot analysis.
FIG. 12. CaMKII regulates multiple signal transduction pathways in myeloid cells. (A,B) Lysates from K562 cells cultured for the indicated time in KN93 were subjected to Western blots. (C) The K562 cells transduced as described in Materials and Methods with either (i) the doxycycline (DOX) inducible expression vector/transactivator harboring the full length, Lys^43 mutated, kinase dead CaMKIIγ (kdCaMKIIγ (Tet-on)) or (ii) the CaMKII shRNA generating plasmids, were cultured in liquid suspension in the presence or absence of DOX as indicated, and cell counts obtained after 48 hours. (D) Lysates from K562 cells transduced with the indicated vectors were subjected to Western blots utilizing the indicated antibodies. For lanes 2 and 4 doxycycline (DOX) treatment was for two days.
as §4

CCCCCCCCCCCCCC(=O)O[C@@H]1[C@@H](C)[C@@]2(O)[C@@H](C=C(CO)C[C@]3(O)C(=O)C(C)=C[C@@H]23)[C@@H]2C(C)(C)[C@]12OC(C)=O [TPA, phorbol myristate acetate]
activated, autophosphorylated CaMKIIγ level [1]: marked decrease

C[C@H](CCC(=O)O)C[C@H](C)C[C@H](C)C(=O)/C=C(\O)[C@H](C)C[C@H](C)C/C=C/[C@@H](C)[C@@H](O)[C@@H](C)[C@@H](O)C[C@@H]1CC[C@@](C)([C@H]2CC[C@@](C)([C@@H](C)O)O2)O1 [ionomycin]
ATRA-induced activity of RARE-driven luciferase reporter [2]: inhibited

KN92
K562 cell proliferation (K562 cells): did not significantly inhibit

CC(C)(O)/C=C/C(=O)[C@](C)(O)[C@H]1[C@H](O)C[C@@]2(C)[C@@H]3CC=C4[C@@H](C=C(O)C(=O)C4(C)C)[C@]3(C)C(=O)C[C@]12C [cucurbitacin I]
Stat3 responsive reporter activity [3]: inhibit

O=C(O)c1ccc2c3c1cccc3c(=O)n1c3ccccc3nc21 [STO609]
K562 cell proliferation (K562 cells): did not significantly inhibit; also recorded: minimal effects | bcr-abl (tet/doxycycline) restored CaMKII autophosphorylation [4]: not inhibited

arsenic trioxide
activated, autophosphorylated CaMKIIγ level [5]: downregulation

Cc1ccc(NC(=O)c2ccc(CN3CCN(C)CC3)cc2)cc1Nc1nccc(-c2cccnc2)n1 [imatinib]
K562 cell proliferation (K562 cells): proliferative arrest | total CaMKIIγ level [6]: no significant change | activated, autophosphorylated CaMKIIγ level [6]: rapid, marked decrease | activated, autophosphorylated CaMKIIγ level ([6]; listed as gleevec): downregulation
